Here are results for eleven molecules from US8080570B2, “α2B and α2C agonists” (Allergan, Inc., priority 2008, dated 2011).

Holding throughout (format): cell-based
Test [1] has as its target T1, α1B (UniProt P35368).
T1 sequence (P35368 1-520): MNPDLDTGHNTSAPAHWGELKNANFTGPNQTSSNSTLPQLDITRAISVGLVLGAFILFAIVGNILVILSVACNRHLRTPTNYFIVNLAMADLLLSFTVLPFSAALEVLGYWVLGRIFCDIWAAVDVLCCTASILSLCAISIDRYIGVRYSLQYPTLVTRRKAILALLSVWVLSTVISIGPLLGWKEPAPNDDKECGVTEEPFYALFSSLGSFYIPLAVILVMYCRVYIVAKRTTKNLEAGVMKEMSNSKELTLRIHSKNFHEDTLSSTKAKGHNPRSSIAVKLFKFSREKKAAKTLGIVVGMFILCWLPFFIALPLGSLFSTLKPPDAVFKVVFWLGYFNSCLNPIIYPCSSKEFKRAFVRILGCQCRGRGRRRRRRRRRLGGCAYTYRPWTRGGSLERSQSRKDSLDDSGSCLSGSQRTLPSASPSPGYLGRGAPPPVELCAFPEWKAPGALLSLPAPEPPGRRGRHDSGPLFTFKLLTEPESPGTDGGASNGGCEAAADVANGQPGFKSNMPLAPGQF
Briefly: FLIPR intracellular calcium assay, α1B. Particulars: for EC50: FLIPR, fluo-3 calcium, NA = not active, read-out: α1B potency (EC50); for α1B relative efficacy: value in parentheses, relative to a standard full agonist. The method, then: (§1) Selected examples were tested via the intracellular calcium assay known as Fluorometric Imaging Plate Reader (FLIPR) which involves the detection of calcium pulses by fluo-3 for analyzing function proximal to α1 receptor activation. […] The compound's activity is expressed as its relative efficacy compared to a standard full agonist.
(Calcium flux is commonly read through the fluorescence of an indicator in the cells.)

Test [2] deals with T2, α2C (Homo sapiens, UniProt P18825).
T2 sequence (P18825 1-462): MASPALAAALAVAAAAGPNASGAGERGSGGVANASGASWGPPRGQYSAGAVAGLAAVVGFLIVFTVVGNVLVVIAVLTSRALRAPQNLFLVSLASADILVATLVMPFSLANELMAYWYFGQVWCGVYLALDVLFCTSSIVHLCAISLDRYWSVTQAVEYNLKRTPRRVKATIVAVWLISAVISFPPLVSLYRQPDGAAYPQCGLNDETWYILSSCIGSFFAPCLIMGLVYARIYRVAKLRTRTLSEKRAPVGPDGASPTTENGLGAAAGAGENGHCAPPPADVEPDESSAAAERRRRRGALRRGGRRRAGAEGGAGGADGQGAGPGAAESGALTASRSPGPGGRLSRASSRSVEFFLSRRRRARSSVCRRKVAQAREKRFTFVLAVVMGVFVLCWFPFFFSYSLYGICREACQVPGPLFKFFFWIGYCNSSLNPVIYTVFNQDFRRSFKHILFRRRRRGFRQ
The experiment in a line: FLIPR intracellular calcium assay, α2C. Conditions: for EC50: read-out: α2C potency (EC50); for α2C relative efficacy: value in parentheses, relative to a standard full agonist.

Test [3] deals with T3, α1A (UniProt P35348).
T3 sequence (P35348 1-466): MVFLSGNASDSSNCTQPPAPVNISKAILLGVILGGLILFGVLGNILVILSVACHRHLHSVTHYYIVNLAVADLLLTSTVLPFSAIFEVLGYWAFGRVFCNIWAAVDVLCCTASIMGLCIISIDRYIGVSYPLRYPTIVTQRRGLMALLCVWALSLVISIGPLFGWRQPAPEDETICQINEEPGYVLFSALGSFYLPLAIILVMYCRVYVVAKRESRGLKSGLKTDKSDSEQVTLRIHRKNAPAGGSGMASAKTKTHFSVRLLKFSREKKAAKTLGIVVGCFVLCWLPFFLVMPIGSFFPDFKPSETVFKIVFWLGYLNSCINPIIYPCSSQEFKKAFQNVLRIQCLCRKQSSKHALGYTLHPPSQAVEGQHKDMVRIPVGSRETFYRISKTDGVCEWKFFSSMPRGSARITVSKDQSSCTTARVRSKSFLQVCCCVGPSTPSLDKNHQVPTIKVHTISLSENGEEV
Briefly: FLIPR intracellular calcium assay, α1A. Conditions: for EC50: FLIPR, fluo-3 calcium, NA = not active, read-out: α1A potency (EC50); for α1A relative efficacy: value in parentheses, relative to a standard full agonist. The method, then:
as §1

Test [4] deals with T4, α2B (Homo sapiens, UniProt P18089).
T4 sequence (P18089 1-450): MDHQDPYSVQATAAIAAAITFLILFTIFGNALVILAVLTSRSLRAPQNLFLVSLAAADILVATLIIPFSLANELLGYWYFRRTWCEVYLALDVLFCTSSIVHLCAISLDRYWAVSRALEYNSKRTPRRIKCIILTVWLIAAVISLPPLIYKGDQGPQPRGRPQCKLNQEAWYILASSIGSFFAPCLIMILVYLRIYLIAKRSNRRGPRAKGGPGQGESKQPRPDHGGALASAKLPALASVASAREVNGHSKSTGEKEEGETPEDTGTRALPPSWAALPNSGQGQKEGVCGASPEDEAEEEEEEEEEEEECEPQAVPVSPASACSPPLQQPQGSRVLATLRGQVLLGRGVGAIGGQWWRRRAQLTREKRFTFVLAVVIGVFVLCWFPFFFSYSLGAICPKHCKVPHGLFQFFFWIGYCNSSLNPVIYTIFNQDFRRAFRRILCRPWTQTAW
The experiment in a line: FLIPR intracellular calcium assay, α2B. Particulars: for EC50: FLIPR, fluo-3 calcium, NA = not active, read-out: α2B potency (EC50); for α2B relative efficacy: value in parentheses, relative to a standard full agonist.

Test [5] has as its target T5, α2A (Homo sapiens, UniProt P08913).
T5 sequence (P08913 1-465): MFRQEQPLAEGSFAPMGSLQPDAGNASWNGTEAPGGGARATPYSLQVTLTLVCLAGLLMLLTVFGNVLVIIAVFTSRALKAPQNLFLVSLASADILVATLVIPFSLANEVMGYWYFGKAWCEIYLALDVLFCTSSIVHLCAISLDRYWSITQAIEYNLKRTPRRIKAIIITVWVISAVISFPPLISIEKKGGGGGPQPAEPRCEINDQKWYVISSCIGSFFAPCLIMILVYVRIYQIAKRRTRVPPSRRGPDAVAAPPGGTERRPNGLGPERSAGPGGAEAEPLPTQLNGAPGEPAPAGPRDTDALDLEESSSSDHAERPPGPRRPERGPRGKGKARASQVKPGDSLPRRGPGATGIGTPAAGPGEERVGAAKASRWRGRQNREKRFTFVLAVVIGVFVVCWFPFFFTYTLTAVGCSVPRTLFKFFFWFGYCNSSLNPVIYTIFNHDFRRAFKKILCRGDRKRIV
Briefly: FLIPR intracellular calcium assay, α2A. Conditions: for EC50: FLIPR, fluo-3 calcium, NA = not active, read-out: α2A potency (EC50); for α2A relative efficacy: value in parentheses, relative to a standard full agonist.

[6] abbreviates: FLIPR, fluo-3 calcium, NA = not active.

Usually EC50 stands for the concentration that produces a half-maximal response. Consider `C#CC(C)NC1=NCCO1` (stereo not drawn), for which the EC50 in test [1] was over 10000 nM; in test [2] (setting [6]) it was 34.6 nM; in test [3], over 10000 nM; in test [4], 413 nM; in test [5] it was 4050 nM. Further, the α2C relative efficacy in test [2] is given as 0.89. Also, the α2B relative efficacy in test [4] worked out at 0.77. For the same molecule, the α2A relative efficacy in test [5] was determined as 0.20.

Regarding `C#CC(CC)NC1=NCCO1` (stereo not drawn), the EC50 in test [2] (setting [6]) is 0.004 nM; in test [3] it was 6540 nM; in test [4], 91.5 nM; in test [5], 54.7 nM. In addition, the α2C relative efficacy in test [2] was found to be 0.87. The α1A relative efficacy in test [3] was 0.78. In addition, the α2B relative efficacy in test [4] was 0.82. The α2A relative efficacy in test [5] turned out to be 0.74.

With `C#CC(CCC)NC1=NCCO1` (stereo not drawn), the EC50 in test [1] is over 10000 nM; in test [2] (setting [6]), 65 nM; in test [3], 3030 nM; in test [4] it was 386 nM; in test [5], 664 nM. The α2C relative efficacy in test [2] is listed as 0.99. In addition, the α1A relative efficacy in test [3] is given as 0.72. Moreover, the α2B relative efficacy in test [4] amounted to 0.68. Further, the α2A relative efficacy in test [5] was 0.44.

Turning to `C#CC(CC(C)C)NC1=NCCO1` (stereo not drawn), the EC50 in test [1] was over 10000 nM; in test [2] (setting [6]), 18.3 nM; in test [3], 7370 nM; in test [4], 331 nM; in test [5], over 10000 nM. Besides, in test [2], the α2C relative efficacy came to 0.98. Besides, the α1A relative efficacy in test [3] stood at 0.59. For the same molecule, the α2B relative efficacy in test [4] was 0.48.

Regarding `C#CC(NC1=NCCO1)c1ccccc1` (stereo not drawn), the α2C relative efficacy result in test [2] is on record as “Potent (0.82)”. For the same molecule, the α1A relative efficacy in test [3] was 0.58 (0.92). The α2B relative efficacy in test [4] is 1.12 (0.61). Moreover, the α2A relative efficacy in test [5] is 0.04 (0.82).

As for `C#C[C@H](NC1=NCCO1)C(C)C`, in test [1], the EC50 is 5940 nM and the α1B relative efficacy came to 0.28. Also, the “α2C potency (EC50)” value in test [2] (setting [6]) is on record as “Potent”. The α2C relative efficacy in test [2] is listed as 1.02. In test [3], the EC50 worked out at 1200 nM and the α1A relative efficacy is 0.93. Further, in test [4], the EC50 was 64 nM and the α2B relative efficacy amounted to 0.88. Also, in test [5], the EC50 came to 16.9 nM and the α2A relative efficacy worked out at 0.85.

Take `C#CC(NC1=NCCO1)C1CC1` (stereo not drawn): the EC50 was over 10000 nM in test [1], 127 nM in test [2] (setting [6]), 354 nM in test [4] and 298 nM in test [5]. Further, in test [2], the α2C relative efficacy turned out to be 0.89. The α2B relative efficacy in test [4] was 0.71. In test [5], the α2A relative efficacy came to 0.41.

Take `C#CC(NC1=NCCO1)c1ccccc1Br` (stereo not drawn): the EC50 was over 10000 nM in test [1]; 295 nM in test [2] (setting [6]); 1650 nM in test [3]; 361 nM in test [4]; over 10000 nM in test [5]. Further, the α2C relative efficacy in test [2] was found to be 0.81. Moreover, the α1A relative efficacy in test [3] worked out at 0.34. In addition, the α2B relative efficacy in test [4] worked out at 0.36.

Take `N#CC(NC1=NCCO1)c1ccccc1` (stereo not drawn): the EC50 in test [2] (setting [6]) amounted to 158 nM. Besides, the α2C relative efficacy in test [2] was 0.76. In addition, in test [3], the EC50 worked out at 1140 nM and the α1A relative efficacy stood at 0.99. Besides, in test [4], the EC50 turned out to be 215 nM and the α2B relative efficacy was determined as 0.56. Further, in test [5], the EC50 worked out at 588 nM and the α2A relative efficacy was 0.42.

`C#CC(NC1=NCCO1)c1cccc(F)c1F` (stereo not drawn): in test [1], the EC50 came out at 3510 nM and the α1B relative efficacy came to 0.54. In addition, in test [2] (setting [6]), the EC50 was 6.01 nM. Moreover, the α2C relative efficacy in test [2] came out at 0.88. For the same molecule, in test [3], the concentration for a half-maximal effect (EC50) worked out at 40.8 nM and the α1A relative efficacy worked out at 0.96. In test [4], the EC50 came to 25.9 nM and the α2B relative efficacy is on record as 0.50. Besides, in test [5], the EC50 is 30 nM and the α2A relative efficacy is given as 0.79.

For the molecule `C#CC(NC1=NCCO1)c1cccc(Cl)c1` (stereo not drawn), in test [1], the concentration giving a half-maximal response (EC50) amounted to 5360 nM and the α1B relative efficacy is 0.24. Further, the 50% effective concentration (EC50) in test [2] (setting [6]) is 382 nM. Moreover, the α2C relative efficacy in test [2] was found to be 0.78. For the same molecule, in test [3], the EC50 was 410 nM and the α1A relative efficacy turned out to be 0.81. In test [4], the EC50 was 218 nM and the α2B relative efficacy came to 0.56. In test [5], the EC50 was found to be 80.5 nM and the α2A relative efficacy stood at 0.88.
